From patent US4443436A, “C-20-Modified macrolide derivatives of the macrolide antibiotics tylosin, desmycosin, macrocin, and lactenocin” (Eli Lilly and Company, priority 1982, dated 1984)
Converted amounts (≈) assume the structure as drawn. Read-outs that look alike come from different tables or passages of the source.

Key:
Assay type in all cases: cell-based
[1] = tested on: Staphylococcus aureus X1.1; test: MIC, standard agar-dilution assay, Staphylococcus aureus X1.1
[2] = tested on: Staphylococcus aureus V41; test: MIC, standard agar-dilution assay, Staphylococcus aureus V41
[3] = tested on: Staphylococcus aureus X400; test: MIC, standard agar-dilution assay, Staphylococcus aureus X400
[4] = tested on: Staphylococcus aureus S13E; test: MIC, standard agar-dilution assay, Staphylococcus aureus S13E; details: Staphylococcus aureus, S13E
[5] = tested on: Staphylococcus epidermidis EPI1; test: MIC, standard agar-dilution assay, Staphylococcus epidermidis EPI1
[6] = tested on: Staphylococcus epidermidis EPI2; test: MIC, standard agar-dilution assay, Staphylococcus epidermidis EPI2; details: Staphylococcus epidermidis, EPI2
[7] = tested on: Streptococcus pyogenes C203; test: MIC, standard agar-dilution assay, Streptococcus pyogenes C203
[8] = tested on: Streptococcus pneumoniae Park I; test: microbe, parasite or virus in culture
[9] = tested on: Streptococcus Group D X66; test: MIC, standard agar-dilution assay, Streptococcus Group D X66
Streptococcus Group 9960 = test: MIC, standard agar-dilution assay, Streptococcus Group 9960; details: GROUP9960
[10] = tested on: Haemophilus influenzae Holt; test: MIC, standard agar-dilution assay, Haemophilus influenzae Holt
[11] = tested on: Haemophilus influenzae R252; test: MIC, standard agar-dilution assay, Haemophilus influenzae R252
Staphylococcus aureus = test: MIC, broth-dilution microtiter test, Staphylococcus aureus
Text: (§1) The MIC's in Table X were obtained using conventional broth-dilution microtiter tests.

Streptococcus bovis 80 = test: MIC, broth-dilution microtiter test, Streptococcus bovis 80; details: Streptococcus equinus; Streptococcus bovis 80; broth-dilution microtiter; read-out: MIC
Text: as §1

[12] = tested on: Pasteurella multocida 17E; test: MIC, broth-dilution microtiter test, Pasteurella multocida 17E; details: Pasteurella multocida 17E; bovine isolate; broth-dilution microtiter; read-out: MIC
Text: as §1

[13] = tested on: Pasteurella multocida 60A; test: MIC, broth-dilution microtiter test, Pasteurella multocida 60A; details: Pasteurella multocida 60A; avian isolate; broth-dilution microtiter; read-out: MIC
Text: as §1

[14] = tested on: Pasteurella hemolytica 22C; test: MIC, broth-dilution microtiter test, Pasteurella hemolytica 22C; details: Pasteurella hemolytica 22C; broth-dilution microtiter; read-out: MIC
Text: as §1

Mycoplasma gallisepticum = test: MIC, broth-dilution microtiter test, Mycoplasma gallisepticum; details: Mycoplasmoides gallisepticum; Mycoplasma gallisepticum; broth-dilution microtiter; read-out: MIC
Text: as §1

Mycoplasma synoviae = test: MIC, broth-dilution microtiter test, Mycoplasma synoviae; details: Mycoplasmopsis synoviae
Text: as §1

Mycoplasma hyorhinis = test: MIC, broth-dilution microtiter test, Mycoplasma hyorhinis
Text: as §1

Mycoplasma hyopneumoniae = test: MIC, broth-dilution microtiter test, Mycoplasma hyopneumoniae; details: Mesomycoplasma hyopneumoniae; Mycoplasma hyopneumoniae; broth-dilution microtiter; read-out: MIC
Text: as §1

[15] = Staphylococcus epidermidis EPI1, agar dilution, read-out: MIC
[16] = Streptococcus pyogenes C203, agar dilution, read-out: MIC
[17] = Haemophilus influenzae R252, ampicillin-resistant strain, read-out: MIC
[18] = broth-dilution microtiter, read-out: MIC
[19] = Staphylococcus aureus X400, methicillin-resistant strain, agar dilution, read-out: MIC
[20] = Streptococcus pneumoniae Park I, agar dilution, read-out: MIC
[21] = Streptococcus Group D X66, agar dilution, read-out: MIC
[22] = Streptococcus Group 9960, agar dilution, read-out: MIC
[23] = Mycoplasma synoviae, broth-dilution microtiter, read-out: MIC
[24] = Staphylococcus epidermidis, EPI1

Compound	MIC ([1]; Staphylococcus aureus, X1.1)	MIC ([2]; Staphylococcus aureus, V41)	MIC ([3]; Staphylococcus aureus, X400)	MIC [4]	MIC [6]	MIC [7, 16]	MIC ([10]; Haemophilus influenzae)	MIC [11, 17]	MIC (Staphylococcus aureus; [18])	MIC (Streptococcus bovis 80)	MIC [12]	MIC [13]	MIC [14]	MIC (Mycoplasma gallisepticum)	MIC (Mycoplasma hyorhinis; Mycoplasma)	MIC (Mycoplasma hyopneumoniae)	MIC [8, 20]	MIC [9, 21]	MIC (Streptococcus Group 9960; [22])	MIC (Mycoplasma synoviae; [23])	also measured
CCC1OC(=O)CC(O)C(C)C(OC2OC(C)C(OC3CC(C)(O)C(O)C(C)O3)C(N(C)C)C2O)C(CCOc2ccc(C(=O)c3ccccc3)cc2)CC(C)C(=O)C=CC(C)=CC1COC1OC(C)C(O)C(OC)C1OC (stereo not drawn) [Compound 13, 20-DH-20-O-(p-Benzoylphenyl)tylosin]	1 µg/mL (≈ 0.91 µM)	1 µg/mL (≈ 0.91 µM)	4 µg/mL (≈ 3.64 µM)	1 µg/mL (≈ 0.91 µM)	1 µg/mL (≈ 0.91 µM)	2 µg/mL (≈ 1.82 µM)	> 128 µg/mL	> 128 µg/mL	1.56 µg/mL (≈ 1.42 µM)	1.56 µg/mL (≈ 1.42 µM)	> 50 µg/mL	> 50 µg/mL	> 50 µg/mL	0.78 µg/mL (≈ 0.71 µM)	6.25 µg/mL (≈ 5.69 µM)	3.12 µg/mL (≈ 2.84 µM)	–	–	–	–	MIC [5, 15]: 2 µg/mL (≈ 1.82 µM); MIC ([8]; Streptococcus pneumoniae): 1 µg/mL (≈ 0.91 µM); MIC [9]: 4 µg/mL (≈ 3.64 µM); MIC (Streptococcus Group 9960): 4 µg/mL (≈ 3.64 µM); MIC (Mycoplasma synoviae): 6.25 µg/mL (≈ 5.69 µM)
CCC1OC(=O)CC(O)C(C)C(OC2OC(C)C(OC3CC(C)(O)C(O)C(C)O3)C(N(C)C)C2O)C(CCOc2ccc(OC)cc2)CC(C)C(=O)C=CC(C)=CC1COC1OC(C)C(O)C(OC)C1OC (stereo not drawn) [Compound 14, 20-DH-20-O-(p-Methoxyphenyl)tylosin]	–	–	–	1 µg/mL (≈ 0.976 µM)	1 µg/mL (≈ 0.976 µM)	1 µg/mL (≈ 0.976 µM)	128 µg/mL (≈ 125 µM)	–	–	25 µg/mL (≈ 24.4 µM)	> 50 µg/mL	> 50 µg/mL	> 50 µg/mL	0.78 µg/mL (≈ 0.762 µM)	–	> 25 µg/mL	8 µg/mL (≈ 7.81 µM)	128 µg/mL (≈ 125 µM)	128 µg/mL (≈ 125 µM)	6.25 µg/mL (≈ 6.1 µM)	MIC ([1]; Staphylococcus aureus X1.1, agar dilution, read-out: MIC): 0.5 µg/mL (≈ 0.488 µM); MIC ([2]; Staphylococcus aureus V41, penicillin-resistant strain, agar dilution, read-out: MIC): 0.5 µg/mL (≈ 0.488 µM); MIC [3, 19]: 2 µg/mL (≈ 1.95 µM); MIC [5, 15]: 2 µg/mL (≈ 1.95 µM); MIC ([11]; Haemophilus influenzae, R252): > 128 µg/mL; MIC (Staphylococcus aureus): 1.56 µg/mL (≈ 1.52 µM); MIC (Mycoplasma hyorhinis; Mycoplasma hyorhinis, broth-dilution microtiter, read-out: MIC): > 50 µg/mL
CCC1OC(=O)CC(O)C(C)C(OC2OC(C)C(OC3CC(C)(O)C(O)C(C)O3)C(N(C)C)C2O)C(CCOc2cc(Cl)cc(Cl)c2)CC(C)C(=O)C=CC(C)=CC1COC1OC(C)C(O)C(OC)C1OC (stereo not drawn) [Compound 15, 20-DH-20-O-(3,5-Dichlorophenyl)tylosin]	1 µg/mL (≈ 0.941 µM)	2 µg/mL (≈ 1.88 µM)	4 µg/mL (≈ 3.76 µM)	1 µg/mL (≈ 0.941 µM)	1 µg/mL (≈ 0.941 µM)	–	–	> 128 µg/mL	1.56 µg/mL (≈ 1.47 µM)	6.25 µg/mL (≈ 5.88 µM)	> 50 µg/mL	> 50 µg/mL	> 50 µg/mL	1.56 µg/mL (≈ 1.47 µM)	50 µg/mL (≈ 47 µM)	> 25 µg/mL	16 µg/mL (≈ 15.1 µM)	> 128 µg/mL	> 128 µg/mL	3.12 µg/mL (≈ 2.93 µM)	MIC [5, 24]: 2 µg/mL (≈ 1.88 µM); MIC ([7]; Streptococcus pyogenes, C203): 1 µg/mL (≈ 0.941 µM); MIC ([10]; Haemophilus influenzae Holt, ampicillin-sensitive strain, read-out: MIC): > 128 µg/mL
CCC1OC(=O)CC(O)C(C)C(OC2OC(C)C(OC3CC(C)(O)C(O)C(C)O3)C(N(C)C)C2O)C(CCOc2cccc(N(C)C)c2)CC(C)C(=O)C=CC(C)=CC1COC1OC(C)C(O)C(OC)C1OC (stereo not drawn) [Compound 16, 20-DH-20-O-[m-(N,N-Dimethylamino)phenyl]tylosin]	1 µg/mL (≈ 0.964 µM)	1 µg/mL (≈ 0.964 µM)	–	1 µg/mL (≈ 0.964 µM)	1 µg/mL (≈ 0.964 µM)	1 µg/mL (≈ 0.964 µM)	128 µg/mL (≈ 123 µM)	> 128 µg/mL	1.56 µg/mL (≈ 1.5 µM)	50 µg/mL (≈ 48.2 µM)	> 50 µg/mL	> 50 µg/mL	> 50 µg/mL	1.56 µg/mL (≈ 1.5 µM)	50 µg/mL (≈ 48.2 µM)	> 25 µg/mL	8 µg/mL (≈ 7.71 µM)	64 µg/mL (≈ 61.7 µM)	> 128 µg/mL	6.25 µg/mL (≈ 6.03 µM)	MIC [3, 19]: 2 µg/mL (≈ 1.93 µM); MIC [5, 24]: 1 µg/mL (≈ 0.964 µM)
